Patent US20250312336A1, “Compositions And Methods For Treating Cancer With Calcium Channel Inhibitors” (Institute for Cancer Research d/b/a The Research Institute …, priority 2024, published 2025)
Entries after “also recorded” stand apart in the source; their conditions may differ.

Assays:
[1] = test system: Panc-1 cells; experiment: Viability of Panc-1 cells under HDL receptor blockade; type: cell-based, human; settings: HDL receptor inhibitor, LDS
Experimental: For direct enumeration of viable cells in co-cultures with CAFs, we seeded CAFs at 12,000 cells per well in 96-well plate (#3603, Corning) in DMEM/10% FBS. The next day, the media was replaced with 10%/LDS/DMEM and 4,000 DsRed-tagged Panc-1 cells were plated on the top of CAFs at 3:1 ratio. After 96 hours, fluorescence of viable DsRed-positive Panc-1 cells was measured using Spark Multimode Microplate Reader (Tecan) with parameters set at 540 nm for excitation and 590 nm for detection. To measure the dynamics of cell proliferation in vitro, we used xCELLigence E-Plate (ACEA BioSciences,) as per the manufacturer's recommended protocol. Impedance values were recorded every hour. Data was graphed using GraphPad Prism software.

[2] = test system: PtdSer externalization in KPC tumors; experiment: Phosphatidylserine imaging in autochthonous KPC pancreatic tumors; type: in vivo, mouse; settings: KPC mice
[3] = test system: KPC3 pancreatic tumors; experiment: Orthotopic syngeneic KPC3 pancreatic tumor growth; type: in vivo, mouse; settings: oral gavage 5 days/week for 3 weeks; niclosamide 150 mg/kg, clofazimine 50 mg/kg
Experimental: Syngeneic 5×10^5 KPC3 cells were injected into the tail of pancreas of anesthetized C57B1/6J mice. […] Mice were kept under defined-flora pathogen-free conditions at the AAALAC-approved Animal Facility of the Fox Chase Cancer Center, Philadelphia, PA. Mice of both genders, equally distributed, were used for the experiments.

[4] = test system: OT-1 CTLs; experiment: Trogocytosis assay of DiD-labeled CAFs co-cultured with OT-1 CTLs; type: cell-based, mouse; settings: 12 h co-culture; niclosamide 1 μM, clofazimine 1 μM, anti-TIM3 Ab 4 μg/ml, 25-hydroxycholesterol 4 μM
Experimental: For trogocytosis between OT-1 and CAF cells, T cells were isolated from splenocytes of OTI mice (strain 021880, The Jackson Laboratory) and stimulated with OVA257-264 (1 μg/ml) for 24 hours as described.
Cholesterol abundance in cell membranes was determined with Cholesterol Detection Assay Kit (Cayman, cat #10009779). Dissociated cells were fixed with fixative solution for 10 minutes, washed and labeled with Filipin III as per the manufacturer's instructions. Labeling with Filipin III was done by incubating in the dark for 30 minutes. After two washes for 5 minutes each, labeling was analyzed by flow cytometry (excitation: 340-380, emission: 385-470). The IFN-γ, Granzyme B and Foxp3 were detected using Foxp3/Transcription Factor Staining Buffer (00-5523-00, Thermo Fisher Scientific). Cells were stained for cell surface markers at 4° C. for 30 min followed by fixation and permeabilization buffer for 30 mins and two washes with permeabilization buffer and incubation with the indicated antibodies for 30 mins, washed with PBS twice followed by flow cytometry analysis.

[5] = test system: TMEM16F-dependent syncytia induced by SARS-COV-2; settings: previous studies; cited from earlier work
[6] = molecular target: T1, ANO6 (Homo sapiens, UniProt Q4KMQ2); experiment: PtdSer externalization (annexin XII) in CAFs co-cultured with DsRed-tagged Panc-1 cells; type: cell-based; set-up: this increase was observed only in control CAFs (ANO6-proficient) engaged in physical contacts with DsRed-tagged Panc-1 cells; endogenous in cells; host or cells: human CAFs in co-culture with DsRed-tagged Panc-1 cells; settings: BTP2 10 μM; clofazimine 1 μM; niclosamide
T1 sequence (Q4KMQ2 1-910): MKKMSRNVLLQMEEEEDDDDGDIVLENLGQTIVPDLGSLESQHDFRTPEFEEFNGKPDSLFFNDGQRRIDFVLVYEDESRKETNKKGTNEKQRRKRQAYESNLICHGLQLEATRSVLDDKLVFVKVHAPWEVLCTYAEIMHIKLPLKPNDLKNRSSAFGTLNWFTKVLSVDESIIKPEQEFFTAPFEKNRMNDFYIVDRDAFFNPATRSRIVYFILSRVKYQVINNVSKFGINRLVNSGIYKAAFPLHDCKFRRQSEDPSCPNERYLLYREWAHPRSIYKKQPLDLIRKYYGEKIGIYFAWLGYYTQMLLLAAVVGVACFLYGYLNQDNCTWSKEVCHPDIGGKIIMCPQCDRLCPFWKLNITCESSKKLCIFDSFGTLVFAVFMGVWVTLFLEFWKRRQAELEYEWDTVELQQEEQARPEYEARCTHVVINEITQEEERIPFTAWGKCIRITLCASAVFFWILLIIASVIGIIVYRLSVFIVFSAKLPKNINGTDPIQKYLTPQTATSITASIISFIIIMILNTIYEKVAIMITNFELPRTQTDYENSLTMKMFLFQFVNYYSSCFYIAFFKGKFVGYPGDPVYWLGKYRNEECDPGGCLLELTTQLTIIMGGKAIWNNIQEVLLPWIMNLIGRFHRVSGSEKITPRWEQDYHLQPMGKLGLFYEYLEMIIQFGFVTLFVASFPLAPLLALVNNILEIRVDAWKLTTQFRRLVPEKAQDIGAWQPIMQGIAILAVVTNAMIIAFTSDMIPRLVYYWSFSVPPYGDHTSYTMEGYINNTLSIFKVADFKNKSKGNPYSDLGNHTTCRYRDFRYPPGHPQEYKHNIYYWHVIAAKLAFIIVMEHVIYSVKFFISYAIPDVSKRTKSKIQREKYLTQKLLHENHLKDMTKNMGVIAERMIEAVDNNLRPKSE
Experimental: (§1) CAFs were seeded in 24-well glass bottom plates (cat. #81156, Ibidi, Fitchburg, WI) at a density of 20,000 cells per well. Cells were then treated with niclosamide (1 μM) for 2 h. After one wash with FBS-free media at RT, cells were incubated with 250 μl of 1:100 annexin XII and 1:200 propidium iodide (pSIVA Abcam #ab129817), with or without 10 μM ionomycin. Cells were then incubated (5 min 37C) and imaged by fluorescence microscopy using a Nikon A1 camera (Nikon) linked to a Nikon Eclipse Ti2-E Inverted Microscope Imaging System (Nikon) for each channel. Fifteen images per well were acquired.

[7] = test system: DsRed-tagged PDAC KPC3 tumors; experiment: Intravital multiphoton imaging of BODIPY-cholesterol LDL uptake in DsRed-tagged KPC3 tumors; type: in vivo, mouse
Experimental: Mice with established orthotopic tumors roughly 21 days post implantation were anesthetized with 1.5-2% isoflurane/oxygen mixture maintained for the duration of imaging. Pancreatic tumors were exposed through a 1 cm incision on the left flank of the mouse placed on a 35° C. heating pad (Kent Scientific). Intensity thresholds were set up to distinguish signal from background fluorescence, and areas positive for DsRed, indicative of tumor cells, were selected for 3D confocal imaging using a 25× objective in the Leica SP8 Dive multiphoton imaging system (Leica Microsystems), prior to the intravenous administration of 150 μL of LDL carrying BODIPY-cholesterol and at 0.5, 1, 5, 16, and 19-hour interval post injection with XY resolution 0.867 um/px and Z distance 2 μm. For each time interval, 2-3 mice were imaged for 0.5-2 hours under continuous anesthesia. At the end of each imaging session, the animals were euthanized, and tissues were collected. The acquired 3D stacks were analyzed using Imaris 10.0.0 software (Oxford Instruments, UK). […] Mean intensity of cholesterol volume co-localized with tumor volume or volume outside of tumor was measured and ratio inside intensity/outside intensity was calculated. […] The volume of vesicles inside the tumor were expressed as a percentage relative to tumor volume.

[8] = test system: CAF1 fibroblasts; experiment: Western blot of signaling epitopes in CAF1 fibroblast lysates; type: cell-based, human; settings: band densities relative to vehicle control
Experimental: Functional fibroblastic cell 3D culture units are needed to ensure the pathophysiological signal reciprocity between fibroblastic cells and self-generated ECM is sustained ex vivo. These units were generated using known methods. Briefly, confluent cultures of human pancreatic fibroblastic cells, harvested from surgical samples and immortalized via hTERT overexpression, were supplemented daily with freshly-prepared ascorbic acid (50 ug/mL) for a period lasting 5 days. The resulting fibroblastic/ECM 3D functional units were used for the phenotypic characterization of the units and to report on the pro-tumor vs. tumor-suppressive (normalized) statuses of the experimental fibroblastic/ECM units. For this, lysates obtained from the assorted units were resolved using SDS-PAGE and traits were gauged via western blot; testing for constitutive integrin and PI3K activities depicted by phosphorylated FAK and AKT respectively. Cultured cells were lysed in RIPA buffer (#24928, Santa Cruz) with phosphatase inhibitor (#1862495, Thermo Fisher Scientific) and protease inhibitors (#1861278, Thermo Fisher Scientific) on ice and cleared by centrifugation (15 min at 17,000 g). The protein concentration was measured with a Pierce BCA Protein Assay Kit (#23225, Thermo Fisher Scientific). […] The density of obtained bands was quantified with Image J software (FIJI).

[9] = molecular target: T1, ANO6; experiment: Phosphatidylserine externalization assay in CAFs pulsed with ionomycin (annexin XII); type: cell-based; set-up: endogenous in cells; host or cells: human patient-derived, hTERT-immortalized pancreatic cancer-associated fibroblasts (CAFs); settings: niclosamide 1 μM 2 h; ionomycin 5 minutes at 10 μM; annexin XII staining
Experimental: as §1

## CCCCCCC1CCCC1=NNC(N)=S (stereo not shown) [BTL1]
[1]
  Panc-1 viability: loss of Panc-1 viability

## CC(C)/N=c1\cc2n(-c3ccc(Cl)cc3)c3ccccc3nc-2cc1Nc1ccc(Cl)cc1 [clofazimine]
[2]; two daily doses 50 mg/kg, 50 μg KL5c IV 5 hours prior to sacrifice
  PtdSer externalization in cytokeratin-positive cancer cells and podoplanin-positive CAFs (KL5c betabody): blocks PtdSer externalization
[2]; two daily doses 50 mg/kg, probe IV 24 hours prior to sacrifice
  PtdSer externalization in KPC tumors (PSVue-794 infrared probe): blocks PtdSer externalization
[2]; two daily doses of clofazimine 50 mg/kg, KL5c betabody and PSVue-794
  Detection of externalized PtdSer in PDAC using two chemically unrelated probes: completely suppressed detection of externalized PtdSer
[3]
  Tumor weights of orthotopic syngeneic KPC3 pancreatic tumors: significantly reduced tumor weights
[4]
  Transfer of DiD (CAF PM uptake) from CAFs to OT-1 CTLs: notably suppressed the measured transfer
[5]
  Formation of TMEM16F-dependent syncytia induced by SARS-COV-2: block formation
[6]
  PtdSer externalization (annexin XII) in CAFs co-cultured with Panc-1 cells: suppressed PtdSer externalization; also recorded: blocked

## O=C(Nc1ccc([N+](=O)[O-])cc1Cl)c1cc(Cl)ccc1O [niclosamide]
[3]
  Tumor weights of orthotopic syngeneic KPC3 pancreatic tumors: significantly reduced tumor weights
[7]; 19 hours post injection
  Cholesterol accumulation in intratumoral vesicles containing BODIPY-cholesterol: significantly lower accumulation
[7]; niclosamide-treated mice, after intravenous labeled LDL, 10, 16 and 19 hours
  BODIPY-cholesterol accumulation in DsRed-tagged PDAC KPC3 cells: suppressed BODIPY-cholesterol accumulation
[4]
  Transfer of DiD (CAF PM uptake) from CAFs to OT-1 CTLs: notably suppressed the measured transfer
[8]
  Signaling: expression of indicated protein epitopes in total cellular lysates of unmodified CAF1 fibroblasts: suppresses signaling
[5]
  Formation of TMEM16F-dependent syncytia induced by SARS-COV-2: block formation
[9]
  PtdSer externalization induced by ionomycin in CAFs pre-treated with inhibitor: did not cause externalized PtdSer; also recorded: prevents PtdSer externalization
[6]
  PtdSer externalization (annexin XII) in CAFs co-cultured with Panc-1 cells: absence of annexin XII labeling
